# Measured values reported in patent US7652037B2, “Methods of lowering lipid levels in a mammal” (City Of Hope, priority 2003, dated 2010).
# Tests used:
# Assay type in all cases: in vivo, rat
# [1] = system: STZ-Diabetic Rats; assay: Body weight and glycemia in STZ-diabetic rats (Examples 10 and 14); conditions: for Body Weight / HbA1c / Plasma Glucose: 50 mg/L in drinking water, 32 weeks; for effect on hyperglycemia and body weight gains: either ND or D rats
# Experimental: (§1) Diabetes was induced in male Sprague-Dawley rats by a single i.p. injection of STZ (65 mg/kg in citrate buffer, pH 4.5) after an overnight fast. Non-diabetic animals were injected with citrate buffer only. One week after STZ injection, only animals with >20 mmol/L plasma glucose were classified as diabetic and included in the study. Diabetic rats were divided randomly into the following treatment groups: diabetic untreated (D); and two diabetic treatment groups, receiving either LR-9 (D+LR-9) or LR-74 (D+LR-74) at 50 mg/L in drinking water. Three non-diabetic groups were studied concurrently: one untreated non-diabetic group (ND), and two non-diabetic groups treated with either LR-9 (ND+LR-9) or LR-74 (ND+LR-74) at 50 mg/L in drinking water.
# (§2) Both plasma glucose and body weight were checked before administration of the drug, and no differences were detected among the three diabetic treatment groups or among the three non-diabetic groups. All animals were housed individually and were given free access to food and water. Glycemic control and body weights were monitored periodically. To limit hyperglycemia and ensure that animals maintained body weight, diabetic animals received 3 IU of ultralente insulin two to three times per week. The study was carried out over 32 weeks. Progression of renal dysfunction was assessed by measuring urinary albumin and plasma creatinine concentrations according to known methods. Figarola et al., Diabetologia 46:1140-115, 2003.
# as §2, with “Rats were treated and divided into treatment groups as described in Example 10. Both” for “Both”, “weeks.” for “weeks. Progression of renal dysfunction was assessed by measuring urinary albumin and plasma creatinine concentrations according to known methods. Figarola et al., Diabetologia 46:1140-115, 2003.”
# [2] = system: STZ-Diabetic Rats; assay: AGEs/ALEs (CML, CEL) in skin collagen by LC-ESI/MS/MS (Example 12)
# Experimental: Tail tendon collagen was isolated from each rat in Example 11 and the degree of AGE formation in collagen was assessed by measurement of fluorescent AGE after enzymatic digestion. Figarola et al., Diabetologia 46:1140-115, 2003. Skin collagen isolation and reduction was performed as described in Shaw et al., Methods Mol. Biol. 186:129-137, 2002. Levels of AGEs/ALEs were normalized to the lysine content of the collagen samples.
# Ion-pair reversed-phase liquid chromatography/tandem mass spectroscopy analysis was performed using an Agilent Technologies™ LC1100 series system interfaced to a Micromass Quatro™ Ultima Triple Quadripole Mass Spectrometer. HPLC separation was achieved using a Phenomenex Synergi™ Hydro-RP […] 80A 150×2.0 mm column preceded by a Phenomenex C18 guard column. The column temperature was maintained at 25° C. and the flow was 0.2 mL/minute. The isocratic mobile phase consisted of 10% acetonitrile and 0.1% heptafluorobutyric acid in water. Total run time was 12 minutes; injection volume was 20 μL. The autoinjector temperature was 5° C. The electrospray ionization source of the mass spectrophotometer was operated in the positive ion mode with a cone gas flow of 190 L/hour and desolvation gas flow of 550 L/hour. The capillary voltage was set to 2.7 kV. Cone and collision cell voltages were optimized to 25 V and 13 eV for CML, 33 V and 12 eV d4CML, 24 V and 14 eV for CEL, […] and 14 eV for D8CEL, and […] and 16 eV for lysine, respectively. […] The desolvation temperature was increased to 300° C., and the solvent delay program was used from 0 to 3 minutes and 10 to 12 minutes. The fragmentation of these compounds can be induced under collision dissociation conditions and acidic mobile phase. The precursor→product ion combinations at m/z were 205.1→130.11 for CML, 209.12→134.12 for d4CML, 219.11→130.11 for CEL, 227.18→138.16 for d8CEL, 147.15→84.21 for lysine and 151.27→88.33 for DL-d4Lysine were used in multiple reaction monitoring (MRM) mode to determine these compounds. MassLynx™ version 3.5 software was used for data acquisition and processing.
# All solutions of standards and internal standards were prepared in water. Standard solution containing both CML and CEL were prepared at six concentrations: 4, 10, 20, 40, 100 and 200 pmol/mL for CML and 2, 5, 10, 20, 50 and 100 pmol/mL for CEL. Quality control solutions were prepared at two concentrations: 7.5 and 150 pmol/mL for CML and 3.75 and 75 pmol/mL for CEL. A stock solution of heavy-labeled internal standards (d4CML and d8CEL) was prepared at 800 pmol/mL. For generation of a standard curve, 130 μL of standard solution was freshly mixed with 10 μL 0.1 M ammonium bicarbonate, 10 μL 0.05% HFBA and 10 μL internal standard stock solution to give a caliber. […]
# [3] = system: STZ-Diabetic Rats; assay: Renal parameters in STZ-diabetic rats treated with LR-9 or LR-74 (Example 10); conditions: for Kidney/Body wt. Ratio / Plasma Creatinine / Urinary Albumin: 50 mg/L in drinking water, 32 weeks; for decrease of elevated plasma creatinine concentrations: diabetic rats
# Experimental: as §1, §2
Structure (SMILES),Body Weight ([1]; diabetic (D) rats) [g],HbA1c ([1]; diabetic (D) rats) [%],Plasma Glucose ([1]; diabetic (D) rats) [mmol/L],effect on hyperglycemia and body weight gains [1],Body Weight ([1]; non-diabetic (ND) rats) [g],HbA1c ([1]; non-diabetic (ND) rats) [%],Plasma Glucose ([1]; non-diabetic (ND) rats) [mmol/L],CEL concentration in skin collagen [2],CML concentration in skin collagen [2],Kidney/Body wt. Ratio ([3]; diabetic (D) rats) [g/100 g],Plasma Creatinine ([3]; diabetic (D) rats) [mg/dL],Urinary Albumin ([3]; diabetic (D) rats) [mg/42 hr],decrease of elevated plasma creatinine concentrations [3] [%],Kidney/Body wt. Ratio ([3]; non-diabetic (ND) rats) [g/100 g],Plasma Creatinine ([3]; non-diabetic (ND) rats) [mg/dL],Urinary Albumin ([3]; non-diabetic (ND) rats) [mg/42 hr]
"CC(C)(Oc1ccc(NC(=O)c2ccc3ccccc3c2)cc1)C(=O)O [LR-9, 4-(2-napthylcarboxamido) phenoxyisobutyric acid]",288.0 ± 29.3,2.0 ± 0.1,27.1 ± 0.5,no effect,681.0 ± 4.6,0.9 ± 0.1,8.2 ± 0.5,significantly limited the increase,significantly limited the increase,1.58 ± 0.11,1.79 ± 0.39,18.0 ± 3.7,~50,0.51 ± 0.01,0.42 ± 0.02,4.8 ± 1.2
"CC(Oc1cccc2cccnc12)C(=O)O (centres unmarked) [LR-74, 2-(8-quinolinoxy) propionic acid]",314.7 ± 21.6,2.1 ± 0.1,26.9 ± 0.6,no effect,744.0 ± 25.8,0.9 ± 0.1,6.8 ± 0.4,significantly limited the increase,significantly limited the increase,1.52 ± 0.10,1.64 ± 0.44,14.3 ± 3.7,~50,0.52 ± 0.01,0.42 ± 0.03,4.6 ± 1.2
